In the NIST ThermoML archive (doi:10.1016/j.jct.2009.04.002):
Where “and” joins values, the source holds several entries; their conditions need not be identical. Equal values may be shown once.

Details: Liquid

CC(C)CCCCCCCOC(=O)c1ccccc1C(=O)OCCCCCCCC(C)C
Details	mass density, SVM3000 rotational viscometer	viscosity, Rotational Automated Viscometer
278.15 K	977.3 kg/m3 and 977.5 kg/m3 and 977.1 kg/m3	404.6 mPa·s and 413.1 mPa·s and 412.2 mPa·s
283.15 K	973.8 kg/m3 and 974 kg/m3 and 973.5 kg/m3	261.2 mPa·s and 267 mPa·s and 266.2 mPa·s
288.15 K	970.2 kg/m3 and 970.4 kg/m3 and 969.9 kg/m3	175.9 mPa·s and 179.4 mPa·s and 178.9 mPa·s
293.15 K	966.7 kg/m3 and 966.9 kg/m3 and 966.4 kg/m3	122.3 mPa·s and 124.5 mPa·s and 124.4 mPa·s
298.15 K	963.2 kg/m3 and 963.4 kg/m3 and 962.9 kg/m3	87.52 mPa·s and 89.06 mPa·s and 88.94 mPa·s
303.15 K	959.7 kg/m3 and 959.8 kg/m3 and 959.4 kg/m3	64.31 mPa·s and 65.45 mPa·s and 65.32 mPa·s
308.15 K	956.2 kg/m3 and 956.3 kg/m3 and 955.9 kg/m3	48.46 mPa·s and 49.29 mPa·s and 49.16 mPa·s
313.15 K	952.7 kg/m3 and 952.8 kg/m3 and 952.4 kg/m3	37.35 mPa·s and 37.97 mPa·s and 37.87 mPa·s
318.15 K	949.2 kg/m3 and 949.3 kg/m3 and 948.9 kg/m3	29.38 mPa·s and 29.83 mPa·s and 29.75 mPa·s
323.15 K	945.7 kg/m3 and 945.8 kg/m3 and 945.3 kg/m3	23.51 mPa·s and 23.87 mPa·s and 23.79 mPa·s
328.15 K	942.2 kg/m3 and 941.8 kg/m3	19.13 mPa·s and 19.41 mPa·s and 19.35 mPa·s

Details	mass density, Vibrating tube method	viscosity, Falling or rolling sphere viscometry
283.15 K, 100 kPa	973.4 kg/m3 and 973.5 kg/m3 and 973.1 kg/m3	–
283.15 K, 1000 kPa	973.7 kg/m3 and 974 kg/m3 and 973.6 kg/m3	–
283.15 K, 5000 kPa	975.9 kg/m3 and 976.2 kg/m3 and 975.7 kg/m3	–
283.15 K, 10000 kPa	978.4 kg/m3 and 978.8 kg/m3 and 978.3 kg/m3	–
283.15 K, 20000 kPa	983.5 kg/m3 and 983.9 kg/m3 and 983.4 kg/m3	–
283.15 K, 30000 kPa	988.3 kg/m3 and 988.6 kg/m3 and 988.1 kg/m3	–
283.15 K, 40000 kPa	992.8 kg/m3 and 993.1 kg/m3 and 992.7 kg/m3	–
283.15 K, 50000 kPa	997.2 kg/m3 and 997.5 kg/m3 and 997 kg/m3	–
283.15 K, 60000 kPa	1001.4 kg/m3 and 1001.7 kg/m3 and 1001.3 kg/m3	–
283.15 K, 70000 kPa	1005.4 kg/m3 and 1005.8 kg/m3	–
298.15 K, 100 kPa	963 kg/m3 and 963.2 kg/m3 and 962.8 kg/m3	–
298.15 K, 1000 kPa	963.4 kg/m3 and 963.8 kg/m3 and 963.3 kg/m3	–
298.15 K, 5000 kPa	965.7 kg/m3 and 966.1 kg/m3	–
298.15 K, 10000 kPa	968.4 kg/m3 and 968.9 kg/m3 and 968.5 kg/m3	–
298.15 K, 20000 kPa	973.7 kg/m3 and 974.2 kg/m3 and 973.8 kg/m3	–
298.15 K, 30000 kPa	978.7 kg/m3 and 979.1 kg/m3	–
298.15 K, 40000 kPa	983.4 kg/m3 and 983.8 kg/m3	–
298.15 K, 50000 kPa	988 kg/m3 and 988.3 kg/m3 and 987.9 kg/m3	–
298.15 K, 60000 kPa	992.4 kg/m3 and 992.8 kg/m3 and 992.3 kg/m3	–
298.15 K, 70000 kPa	996.6 kg/m3 and 997 kg/m3	–
303.15 K, 100 kPa	–	65 mPa·s and 64.6 mPa·s
303.15 K, 1000 kPa	–	66.4 mPa·s and 66 mPa·s
303.15 K, 5000 kPa	–	72.9 mPa·s and 72.6 mPa·s
303.15 K, 10000 kPa	–	82 mPa·s and 81.7 mPa·s
303.15 K, 20000 kPa	–	103 mPa·s
303.15 K, 30000 kPa	–	130 mPa·s and 129 mPa·s
303.15 K, 40000 kPa	–	162 mPa·s
303.15 K, 50000 kPa	–	202 mPa·s and 201 mPa·s
303.15 K, 60000 kPa	–	251 mPa·s and 250 mPa·s
313.15 K, 100 kPa	–	38 mPa·s and 38.5 mPa·s
313.15 K, 1000 kPa	–	38.7 mPa·s and 39.3 mPa·s
313.15 K, 5000 kPa	–	42.2 mPa·s and 42.8 mPa·s
313.15 K, 10000 kPa	–	46.9 mPa·s and 47.6 mPa·s
313.15 K, 20000 kPa	–	57.8 mPa·s and 58.8 mPa·s
313.15 K, 30000 kPa	–	71.1 mPa·s and 72.4 mPa·s
313.15 K, 40000 kPa	–	87.2 mPa·s and 88.8 mPa·s
313.15 K, 50000 kPa	–	107 mPa·s and 109 mPa·s
313.15 K, 60000 kPa	–	130 mPa·s and 132 mPa·s
323.15 K, 100 kPa	945.4 kg/m3 and 945.7 kg/m3 and 945.2 kg/m3	–
323.15 K, 1000 kPa	945.8 kg/m3 and 946.3 kg/m3	–
323.15 K, 5000 kPa	948.4 kg/m3 and 948.8 kg/m3 and 948.3 kg/m3	–
323.15 K, 10000 kPa	951.5 kg/m3 and 951.9 kg/m3 and 951.4 kg/m3	–
323.15 K, 20000 kPa	957.4 kg/m3 and 957.9 kg/m3	–
323.15 K, 30000 kPa	962.9 kg/m3 and 963.3 kg/m3 and 962.8 kg/m3	–
323.15 K, 40000 kPa	968.1 kg/m3 and 968.5 kg/m3 and 968 kg/m3	–
323.15 K, 50000 kPa	973.1 kg/m3 and 973.4 kg/m3 and 973 kg/m3	–
323.15 K, 60000 kPa	977.8 kg/m3 and 978.1 kg/m3 and 977.7 kg/m3	–
323.15 K, 70000 kPa	982.3 kg/m3 and 982.6 kg/m3 and 982.2 kg/m3	–
333.15 K, 100 kPa	938.4 kg/m3 and 938.7 kg/m3 and 938.2 kg/m3	16.1 mPa·s and 15.5 mPa·s and 16 mPa·s
333.15 K, 1000 kPa	938.9 kg/m3 and 939.3 kg/m3 and 938.8 kg/m3	16.4 mPa·s and 15.7 mPa·s and 16.3 mPa·s
333.15 K, 5000 kPa	941.6 kg/m3 and 942 kg/m3 and 941.5 kg/m3	17.7 mPa·s and 17 mPa·s and 17.6 mPa·s
333.15 K, 10000 kPa	–	19.5 mPa·s and 18.6 mPa·s and 19.3 mPa·s
